From publication PMC6268896, “Two New Diterpenoids from the Buds of Wikstroemia chamaedaphne” (Molecules, 2012)
Read-outs that look alike come from different tables or passages of the source.

Tests used:
[1] = system: SW480 (colon cancer) cells; assay: MTT cytotoxicity assay, SW480; assay type: cell-based, human; conditions: 48 h, read-out: IC50 against SW480
Protocol: (§1) Compounds 1–10 were evaluated for their cytotoxic activities against five human cancer cell lines, HL-60 (human myeloid leukemia), SMMC-7721 (hepatocellular carcinoma), A549 (lung cancer), MCF-7 (breast cancer), and SW480 (colon cancer), and one human normal cell line BEAS-2B (human bronchial epithelial) by the MTT method. DDP (cis-platin) and taxol were used as positive controls.
(§2) Five human cancer cell lines, human myeloid leukemia HL-60, hepatocellular carcinoma SMMC-7721, lung cancer A549, breast cancer MCF-7, and colon cancer SW480 cells, together with one human normal cell line BEAS-2B (human bronchial epithelial), were assayed. Cells were cultured in RPMI-1640 or in DMEM medium (Hyclone, USA), supplemented with 10% fetal bovine serum (Hyclone, USA) in 5% CO2 at 37 °C. The antiproliferative assay was performed according to the MTT (3-(4,5-dimethylthiazol-2-yl)-2,5-diphenyl tetrazolium bromide) method in 96-well microplates, as reported previously, with slight modification. Briefly, 100 μL of adherent cells was seeded into each well of 96-well cell culture plates and allowed to adhere for 12 h before addition of test compounds, while suspended cells were seeded just before the addition of the drug with initial density of 1 × 10^5 cells/mL. Each cancer cell line was exposed to the tested compound at concentrations of 0.0625, 0.32, 1.6, 8, and 40 μM in triplicates for 48 h. Wells with DMSO were used as negative controls, and DDP (cis-platin, Sigma, USA) and taxol were used as a positive control. After compound treatment, cell viability was detected by a Bio-Rad 680 at λ = 595 nm and a cell growth curve was graphed. IC50 values were calculated by Reed and Muench’s method.

[2] = system: MCF-7 (breast cancer) cells; assay: MTT cytotoxicity assay, MCF-7; assay type: cell-based, human; conditions: MCF-7, MTT, 48 h, read-out: IC50 against MCF-7
Protocol: as §1, §2

[3] = system: HL-60 (human myeloid leukemia) cells; assay: MTT cytotoxicity assay, HL-60; assay type: cell-based; conditions: HL-60, MTT, 48 h, read-out: IC50 against HL-60
Protocol: as §1, §2

[4] = system: BEAS-2B (human bronchial epithelial) cells; assay: MTT cytotoxicity assay, BEAS-2B normal cell line; assay type: cell-based; conditions: BEAS-2B human normal cell line, 48 h, read-out: IC50 against BEAS-2B
Protocol: as §1, §2

A549 (lung cancer) cells = assay: MTT cytotoxicity assay, A549; assay type: cell-based, human; conditions: A-549, MTT, 48 h, read-out: IC50 against A-549
Protocol: as §1, §2

[5] = system: SMMC-7721 (hepatocellular carcinoma) cells; assay: MTT cytotoxicity assay, SMMC-7721; assay type: cell-based, human; conditions: SMMC-7721, MTT, 48 h, read-out: IC50 against SMMC-7721
Protocol: as §1, §2

## C=C(C)[C@]12C[C@@H](C)[C@@]34OC5(CCCCCCC[C@@H](C)[C@H]6[C@H](C)[C@H](O)[C@@](O)([C@H](O)[C@@]7(COC(=O)/C=C/c8ccccc8)O[C@H]7[C@H]3[C@H]1O5)[C@@H]64)O2 [Compound 1, wikstroelide Q]
[1]; Homo sapiens
  IC50: > 40 µM
[2]; Homo sapiens, MCF7
  IC50: > 40 µM
[3]; Homo sapiens
  IC50: 26.4 µM
[4]
  IC50: > 40 µM
A549 (lung cancer) cells; Homo sapiens, A549
  IC50: > 40 µM
[5]; Homo sapiens
  IC50: > 40 µM

## C=C(C)[C@]12C[C@@H](C)[C@@]34OC5(CCCCCCC[C@H](C)[C@H]6[C@H](C)[C@H](OC(=O)c7ccccc7)[C@@](O)([C@H](O)[C@@]7(CO)O[C@H]7[C@H]3[C@H]1O5)[C@@H]64)O2 [Compound 2, pimelea factors P2]
[1]; Homo sapiens
  IC50: 15.9 µM
[2]; Homo sapiens, MCF7
  IC50: 12.8 µM
[3]; Homo sapiens
  IC50: 13.8 µM
[4]
  IC50: 17.4 µM
A549 (lung cancer) cells; Homo sapiens, A549
  IC50: 12.1 µM
[5]; Homo sapiens
  IC50: 17.5 µM

## C=C(C)[C@@]12C[C@@H](C)[C@@]34OC5(CCCCCCC[C@@H](C)[C@H]6[C@H](C)[C@H](OC(=O)c7ccccc7)[C@@](O)([C@H](O)[C@@]7(CO)O[C@H]7[C@H]3[C@H]1O5)[C@@H]64)O2 [Compound 3, pimelea factor P3]
[1]; Homo sapiens
  IC50: 14.4 µM
[2]; Homo sapiens, MCF7
  IC50: 14 µM
[3]; Homo sapiens
  IC50: 13.3 µM
[4]
  IC50: 15.4 µM
A549 (lung cancer) cells; Homo sapiens, A549
  IC50: 11.1 µM
[5]; Homo sapiens
  IC50: 14.9 µM

## CC(=O)O[C@@]12C[C@@H](C)[C@@]3(O)[C@@H](C=C(CO)C[C@]4(O)C(=O)C(C)=C[C@@H]34)[C@@H]1C2(C)C [Compound 4, prostratin]
[1]; Homo sapiens
  IC50: 13.3 µM
[2]; Homo sapiens, MCF7
  IC50: 16 µM
[3]; Homo sapiens
  IC50: 15.6 µM
[4]
  IC50: 17.4 µM
A549 (lung cancer) cells; Homo sapiens, A549
  IC50: 12.6 µM
[5]; Homo sapiens
  IC50: 18.1 µM

## CCCCC/C=C/C=C/C(=O)O[C@@H]1[C@@H](C)[C@@]2(O)[C@@H](C=C(CO)C[C@]3(O)C(=O)C(C)=C[C@@H]23)[C@@H]2C(C)(C)[C@]12OC(C)=O [Compound 5, prostratin Q]
[1]; Homo sapiens
  IC50: 14.8 µM
[2]; Homo sapiens, MCF7
  IC50: 15 µM
[3]; Homo sapiens
  IC50: 15.8 µM
[4]
  IC50: 16.6 µM
A549 (lung cancer) cells; Homo sapiens, A549
  IC50: 15.8 µM
[5]; Homo sapiens
  IC50: 15.1 µM

## COc1cc([C@H]2OC[C@H]3[C@@H]2CO[C@H]3c2ccc(O)c(OC)c2)ccc1O [Compound 6, (+)-epipioresinol]
[1]; Homo sapiens
  IC50: > 40 µM
[2]; Homo sapiens, MCF7
  IC50: > 40 µM
[3]; Homo sapiens
  IC50: > 40 µM
[4]
  IC50: > 40 µM
A549 (lung cancer) cells; Homo sapiens, A549
  IC50: > 40 µM
[5]; Homo sapiens
  IC50: > 40 µM

## COc1cc([C@H]2c3cc(O)c(OC)cc3C[C@@H](CO)[C@@H]2CO)ccc1O [Compound 7, (+)-isolariciresinol]
[1]; Homo sapiens
  IC50: > 40 µM
[2]; Homo sapiens, MCF7
  IC50: > 40 µM
[3]; Homo sapiens
  IC50: > 40 µM
[4]
  IC50: > 40 µM
A549 (lung cancer) cells; Homo sapiens, A549
  IC50: > 40 µM
[5]; Homo sapiens
  IC50: > 40 µM

## COc1cc(C[C@@H]2CO[C@@H](c3ccc(O)c(OC)c3)[C@@H]2CO)ccc1O [Compound 8, (−)-lariciresinol]
[1]; Homo sapiens
  IC50: > 40 µM
[2]; Homo sapiens, MCF7
  IC50: > 40 µM
[3]; Homo sapiens
  IC50: > 40 µM
[4]
  IC50: > 40 µM
A549 (lung cancer) cells; Homo sapiens, A549
  IC50: > 40 µM
[5]; Homo sapiens
  IC50: > 40 µM

## O=C(c1ccc2c(c1)OCO2)[C@H]1CO[C@H](c2ccc3c(c2)OCO3)[C@H]1CO [Compound 9, (+)-epi-sesaminone]
[1]; Homo sapiens
  IC50: > 40 µM
[2]; Homo sapiens, MCF7
  IC50: > 40 µM
[3]; Homo sapiens
  IC50: > 40 µM
[4]
  IC50: > 40 µM
A549 (lung cancer) cells; Homo sapiens, A549
  IC50: > 40 µM
[5]; Homo sapiens
  IC50: > 40 µM

## COc1ccc(C[C@@H]2COC(=O)[C@H]2Cc2ccc(OC)c(O)c2)cc1O [Compound 10, prestegane B]
[1]; Homo sapiens
  IC50: > 40 µM
[2]; Homo sapiens, MCF7
  IC50: > 40 µM
[3]; Homo sapiens
  IC50: > 40 µM
[4]
  IC50: > 40 µM
A549 (lung cancer) cells; Homo sapiens, A549
  IC50: > 40 µM
[5]; Homo sapiens
  IC50: > 40 µM

## N.N.[Cl][Pt][Cl] [DDP ( cis-platin), cis-platin, reference compound]
[1]
  IC50: 18.1 µM
[2]
  IC50: 16.9 µM
[3]
  IC50: 1.25 µM
[4]
  IC50: 8.61 µM
A549 (lung cancer) cells
  IC50: 14.1 µM
[5]
  IC50: 16.2 µM

## CC(=O)O[C@H]1C(=O)[C@@]2(C)[C@H]([C@H](OC(=O)c3ccccc3)[C@]3(O)C[C@H](OC(=O)[C@H](O)[C@@H](NC(=O)c4ccccc4)c4ccccc4)C(C)=C1C3(C)C)[C@]1(OC(C)=O)CO[C@@H]1C[C@@H]2O [Taxol, taxol, reference compound]
[1]; Homo sapiens
  IC50: < 0.008 µM
[2]; Homo sapiens, MCF7
  IC50: < 0.008 µM
[3]; Homo sapiens
  IC50: < 0.008 µM
[4]
  IC50: 5 µM
A549 (lung cancer) cells; Homo sapiens, A549
  IC50: < 0.008 µM
[5]; Homo sapiens
  IC50: < 0.008 µM
